Data as given in US10611747B2, “Pyrone based compounds for treating bacterial infections” (FORGE THERAPEUTICS, INC., priority 2015, dated 2020).
Values after ≈ are worked out from the molar mass of the structure shown. Read-outs that look alike come from different tables or passages of the source.

How the values were obtained:
LpxC = LpxC (Klebsiella pneumoniae subsp. pneumoniae, UniProt A6T4N9); assay: Inhibition assay against Klebsiella pneumonae LpxC (LC-MS/MS); type: biochemical; details: LpxC 0.2 nM Kpn, 22° C., 60 minutes
LpxC, sequence (A6T4N9 whole entry): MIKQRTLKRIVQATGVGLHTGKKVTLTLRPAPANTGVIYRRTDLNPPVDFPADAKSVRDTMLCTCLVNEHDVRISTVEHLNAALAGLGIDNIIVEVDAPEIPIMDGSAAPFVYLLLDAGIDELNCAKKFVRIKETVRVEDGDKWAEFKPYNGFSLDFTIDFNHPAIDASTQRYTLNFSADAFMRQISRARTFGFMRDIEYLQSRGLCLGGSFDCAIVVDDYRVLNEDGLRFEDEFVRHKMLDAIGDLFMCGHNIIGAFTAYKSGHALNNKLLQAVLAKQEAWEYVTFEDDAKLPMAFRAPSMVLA
Protocol: LpxC inhibition assays were performed using liquid chromatography with tandem mass spectrometry. Assays were performed, in duplicate, in opaque, 96-well microplates in a total assay volume of 50 μL. The incubation mixture contained: LpxC (0.2 nM Kpn), 0.8 μM UDP-3-O—[(R)-3-hydroxymyristoyl]-N-acetyl-glucosamine, 40 mM Bis-Tris/HCI buffer (pH 5.9), 5 mM sodium phosphate buffer (NaH2PO4/Na2HPO4, pH 7.0), 1 mM DTT, 0.1% (w/v) fatty-acid free BSA, 10% DMSO (v/v, with or without compound). The reactions were incubated at 22° C. for 60 minutes (with mild shaking), then terminated by the addition of 25 μL 0.25 N HCl. Samples were analyzed using a LC-MS system to measure native LpxC substrate and reaction product. IC50 analysis was done using GeneData Screener and a four parameter variable slope normalized to controls. Test compounds were prepared as 8-point dose-response curves (factor dilution 2) in triplicate, starting at 1 μM final concentration. Each assay plate included 6 wells used for the Z′ factor calculation, 3 as a positive control for the assay and 3 as a negative control. The robustness was calculated as the median Z′ factor for 5 plates.

E. coli delta tolC = assay: Bacterial susceptibility testing (MIC, broth microdilution); type: cell-based; details: Escherichia coli, 24 h, read-out: MIC E. coli delta tolC
Protocol: (§1) Minimal inhibitory concentrations (MIC) were determined by the broth microdilution method in accordance with the Clinical and Laboratory Standards Institute (CLSI) guidelines. In brief, organism suspensions were adjusted to a 0.5 McFarland standard to yield a final inoculum between 3×10^5 and 7×10^5 colony-forming units (CFU)/mL. Drug dilutions and inocula were made in sterile, cation adjusted Mueller-Hinton Broth (Beckton Dickinson). An inoculum volume of 100 μL was added to wells containing 100 μL of broth with 2-fold serial dilutions of drug. All inoculated microdilution trays were incubated in ambient air at 35° C. for 18-24 h. […] Performance of the assay was monitored by the use of laboratory quality-control strains and levofloxacin, a compound with a defined MIC spectrum, in accordance with CLSI guidelines.

[1] = test system: P. aeruginosa 210 delta mexAB-OprM; assay: as above; type: cell-based; details: Pseudomonas aeruginosa, read-out: MIC P. aeruginosa 210 delta mexAB-OprM
Protocol: as §1

E. coli ATCC 25922 = assay: as above; type: cell-based; details: Escherichia coli
Protocol: as §1

P. aeruginosa 209 = assay: as above; type: cell-based
Protocol: as §1

S. aureus ATCC 29213 = assay: as above; type: cell-based; details: Staphylococcus aureus
Protocol: as §1

E. coli imp mutant = assay: as above; type: cell-based; details: Escherichia coli, read-out: MIC E. coli imp mutant
Protocol: as §1

E. coli BW25113 = assay: as above; type: cell-based; details: Escherichia coli, no FBS, 35° C., 18-24 h
Protocol: as §1

[2] = ATCC25922, no FBS, broth microdilution, 35° C., 18-24 h, read-out: MIC E. coli ATCC 25922-no FBS
[3] = Pseudomonas aeruginosa, 209, broth microdilution, 35° C., 18-24 h, read-out: MIC P. aeruginosa 209
[4] = ATCC29213, broth microdilution, 35° C., 18-24 h, read-out: MIC S. aureus ATCC 29213
[5] = ATCC25922, read-out: MIC E. coli ATCC 25922-no FBS
[6] = ATCC29213, read-out: MIC S. aureus ATCC 29213
[7] = Pseudomonas aeruginosa, 209, read-out: MIC P. aeruginosa 209

SMILES	IC50 (LpxC)	MIC (E. coli delta tolC)	MIC [1]	MIC (E. coli ATCC 25922; [2])	MIC (P. aeruginosa 209; [3])	MIC (S. aureus ATCC 29213; [4])	MIC (E. coli imp mutant)	MIC (E. coli BW25113)	MIC (E. coli ATCC 25922; [5])	MIC (S. aureus ATCC 29213; [6])	MIC (P. aeruginosa 209; [7])
O=C(c1ccc(C#CC#Cc2ccc(NCc3occc(=O)c3O)cc2)cc1)N1CCOCC1 [Compound 32]	10 to 100 nM	< 1 µg/mL	> 32 µg/mL	1 to 8 µg/mL (≈ 2.2 to 17.6 µM)	> 32 µg/mL	> 32 µg/mL	1 to 8 µg/mL (≈ 2.2 to 17.6 µM)	1 to 8 µg/mL (≈ 2.2 to 17.6 µM)	–	–	–
CNC(=O)c1ccc(C#CC#Cc2ccc(NCc3oc(CS(C)(=O)=O)cc(=O)c3O)cc2)cc1 [Compound 4, 4-((4-(((3-hydroxy-6-((methylsulfonyl)methyl)-4-oxo-4H-pyran-2-yl)methyl)amino)phenyl)buta-1,3-diyn-1-yl)-N-methylbenzamide]	> 100 nM	< 1 µg/mL	–	–	–	–	8 to 32 µg/mL (≈ 16.3 to 65.2 µM)	–	1 to 8 µg/mL (≈ 2.04 to 16.3 µM)	> 32 µg/mL	–
O=C(O)c1ccc(C#CC#Cc2ccc(NCc3occc(=O)c3O)cc2)cc1 [Compound 38]	> 100 nM	< 1 µg/mL	8 to 32 µg/mL (≈ 20.8 to 83 µM)	1 to 8 µg/mL (≈ 2.59 to 20.8 µM)	> 32 µg/mL	> 32 µg/mL	< 1 µg/mL	< 1 µg/mL	–	–	–
O=C(c1ccc(C#CC#Cc2ccc(NCc3occc(=O)c3O)cc2)cc1)N1CC(O)C1 [Compound 39]	10 to 100 nM	< 1 µg/mL	8 to 32 µg/mL (≈ 18.2 to 72.7 µM)	1 to 8 µg/mL (≈ 2.27 to 18.2 µM)	> 32 µg/mL	> 32 µg/mL	1 to 8 µg/mL (≈ 2.27 to 18.2 µM)	1 to 8 µg/mL (≈ 2.27 to 18.2 µM)	–	–	–
CS(=O)(=O)Cc1cc(=O)c(O)c(CNc2ccc(C#CC#Cc3ccccc3)cc2)o1 [Compound 5, 2-((4-(4-phenylbuta-1,3-diynyl)phenylamino)methyl)-3-hydroxy-6-((methylsulfonyl)methyl)-4H-pyran-4-one]	–	1 to 8 µg/mL (≈ 2.31 to 18.5 µM)	> 32 µg/mL	–	–	–	1 to 8 µg/mL (≈ 2.31 to 18.5 µM)	1 to 8 µg/mL (≈ 2.31 to 18.5 µM)	8 to 32 µg/mL (≈ 18.5 to 73.8 µM)	> 32 µg/mL	> 32 µg/mL
CN1CCN(C(=O)c2ccc(C#CC#Cc3ccc(NCc4occc(=O)c4O)cc3)cc2)CC1 [Compound 40]	10 to 100 nM	< 1 µg/mL	8 to 32 µg/mL (≈ 17.1 to 68.4 µM)	1 to 8 µg/mL (≈ 2.14 to 17.1 µM)	> 32 µg/mL	> 32 µg/mL	< 1 µg/mL	1 to 8 µg/mL (≈ 2.14 to 17.1 µM)	–	–	–
CS(=O)(=O)Cc1cc(=O)c(O)c(COc2ccc(C#Cc3ccccc3)cc2)o1 [Compound 9, 2-((4-(2-phenylethynyl)phenoxy)methyl)-3-hydroxy-6-((methylsulfonyl)methyl)-4H-pyran-4-one]	–	8 to 32 µg/mL (≈ 19.5 to 78 µM)	> 32 µg/mL	–	–	–	8 to 32 µg/mL (≈ 19.5 to 78 µM)	> 32 µg/mL	> 32 µg/mL	8 to 32 µg/mL (≈ 19.5 to 78 µM)	> 32 µg/mL
CNC(=O)c1ccc(-c2ccc(NCc3oc(CNS(C)(=O)=O)cc(=O)c3O)cc2)cc1 [Compound 1, 4′-(((3-hydroxy-6-(methylsulfonamidomethyl)-1-oxo-4H-pyran-2-yl)methyl)amino)-N-methyl-[1,1′-biphenyl]-4-carboxamide]	–	> 32 µg/mL	> 32 µg/mL	> 32 µg/mL	> 32 µg/mL	> 32 µg/mL	> 32 µg/mL	> 32 µg/mL	–	–	–
O=C(c1ccc(C#CC#Cc2ccc(NCc3occc(=O)c3O)cc2)cc1)N1CCNCC1 [Compound 48]	–	< 1 µg/mL	8 to 32 µg/mL (≈ 17.6 to 70.6 µM)	1 to 8 µg/mL (≈ 2.21 to 17.6 µM)	> 32 µg/mL	> 32 µg/mL	1 to 8 µg/mL (≈ 2.21 to 17.6 µM)	1 to 8 µg/mL (≈ 2.21 to 17.6 µM)	–	–	–
CNC(=O)c1ccc(-c2ccc(OCc3oc(CS(C)(=O)=O)cc(=O)c3O)cc2)cc1 [Compound 8, 4′-((3-hydroxy-6-((methylsulfonyl)methyl)-4-oxo-4H-pyran-2-yl)methoxy)-N-methyl-[1,1′-biphenyl]-4-carboxamide]	–	> 32 µg/mL	> 32 µg/mL	–	–	–	> 32 µg/mL	> 32 µg/mL	> 32 µg/mL	> 32 µg/mL	> 32 µg/mL
O=C(c1ccc(C#CC#Cc2ccc(NCc3occc(=O)c3O)cc2)cc1)N1CCCCC1 [Compound 33]	–	< 1 µg/mL	> 32 µg/mL	8 to 32 µg/mL (≈ 17.7 to 70.7 µM)	> 32 µg/mL	> 32 µg/mL	1 to 8 µg/mL (≈ 2.21 to 17.7 µM)	1 to 8 µg/mL (≈ 2.21 to 17.7 µM)	–	–	–
O=c1ccoc(CNc2ccc(C#CC#Cc3ccccc3)cc2)c1O [Compound 28]	> 100 nM	1 to 8 µg/mL (≈ 2.93 to 23.4 µM)	> 32 µg/mL	1 to 8 µg/mL (≈ 2.93 to 23.4 µM)	> 32 µg/mL	> 32 µg/mL	1 to 8 µg/mL (≈ 2.93 to 23.4 µM)	1 to 8 µg/mL (≈ 2.93 to 23.4 µM)	–	–	–
O=C(c1ccc(C#Cc2ccc(NCc3occc(=O)c3O)cc2)cc1)N1CC(O)C1 [Compound 54]	–	8 to 32 µg/mL (≈ 19.2 to 76.8 µM)	> 32 µg/mL	> 32 µg/mL	> 32 µg/mL	> 32 µg/mL	> 32 µg/mL	> 32 µg/mL	–	–	–
N#Cc1ccc(C#Cc2ccc(NCc3occc(=O)c3O)cc2)cc1 [Compound 52]	–	> 32 µg/mL	> 32 µg/mL	> 32 µg/mL	> 32 µg/mL	> 32 µg/mL	> 32 µg/mL	> 32 µg/mL	–	–	–
O=C(c1ccc(C#CC#Cc2ccc(NCc3occc(=O)c3O)cc2)cc1)N1CCC(O)C1 (centres unmarked) [Compound 45]	–	< 1 µg/mL	8 to 32 µg/mL (≈ 17.6 to 70.4 µM)	1 to 8 µg/mL (≈ 2.2 to 17.6 µM)	> 32 µg/mL	> 32 µg/mL	< 1 µg/mL	1 to 8 µg/mL (≈ 2.2 to 17.6 µM)	–	–	–
CN(C)[C@@H]1CCN(C(=O)c2ccc(C#CC#Cc3ccc(NCc4occc(=O)c4O)cc3)cc2)C1 [Compound 37]	–	< 1 µg/mL	> 32 µg/mL	1 to 8 µg/mL (≈ 2.08 to 16.6 µM)	> 32 µg/mL	> 32 µg/mL	1 to 8 µg/mL (≈ 2.08 to 16.6 µM)	1 to 8 µg/mL (≈ 2.08 to 16.6 µM)	–	–	–
O=C(NCCO)c1ccc(C#CC#Cc2ccc(NCc3occc(=O)c3O)cc2)cc1 [Compound 44]	–	< 1 µg/mL	8 to 32 µg/mL (≈ 18.7 to 74.7 µM)	1 to 8 µg/mL (≈ 2.33 to 18.7 µM)	> 32 µg/mL	> 32 µg/mL	< 1 µg/mL	1 to 8 µg/mL (≈ 2.33 to 18.7 µM)	–	–	–
O=c1ccoc(CNc2ccc(C#CC#Cc3ccc(CN4CCOCC4)cc3)cc2)c1O [Compound 47]	10 to 100 nM	1 to 8 µg/mL (≈ 2.27 to 18.2 µM)	> 32 µg/mL	8 to 32 µg/mL (≈ 18.2 to 72.6 µM)	> 32 µg/mL	> 32 µg/mL	1 to 8 µg/mL (≈ 2.27 to 18.2 µM)	1 to 8 µg/mL (≈ 2.27 to 18.2 µM)	–	–	–
O=C(NCc1cc(=O)c(O)co1)c1ccc(C#Cc2ccccc2)cc1 [Compound 27]	–	> 32 µg/mL	> 32 µg/mL	> 32 µg/mL	> 32 µg/mL	> 32 µg/mL	> 32 µg/mL	> 32 µg/mL	–	–	–
O=C(O)c1ccc(C#Cc2ccc(NCc3occc(=O)c3O)cc2)cc1 [Compound 53]	–	1 to 8 µg/mL (≈ 2.77 to 22.1 µM)	> 32 µg/mL	> 32 µg/mL	> 32 µg/mL	> 32 µg/mL	> 32 µg/mL	> 32 µg/mL	–	–	–
COC(=O)c1ccc(C#CC#Cc2ccc(NCc3occc(=O)c3O)cc2)cc1 [Compound 31]	–	1 to 8 µg/mL (≈ 2.5 to 20 µM)	> 32 µg/mL	> 32 µg/mL	> 32 µg/mL	> 32 µg/mL	> 32 µg/mL	> 32 µg/mL	–	–	–
O=c1ccoc(CNc2ccc(C#Cc3ccc(CN4CCOCC4)cc3)cc2)c1O [Compound 55]	–	1 to 8 µg/mL (≈ 2.4 to 19.2 µM)	8 to 32 µg/mL (≈ 19.2 to 76.8 µM)	1 to 8 µg/mL (≈ 2.4 to 19.2 µM)	> 32 µg/mL	> 32 µg/mL	1 to 8 µg/mL (≈ 2.4 to 19.2 µM)	1 to 8 µg/mL (≈ 2.4 to 19.2 µM)	–	–	–
CNC(=O)c1ccc(C#CC#Cc2ccc(NCc3occc(=O)c3O)cc2)cc1 [Compound 35]	> 100 nM	< 1 µg/mL	> 32 µg/mL	1 to 8 µg/mL (≈ 2.51 to 20.1 µM)	> 32 µg/mL	> 32 µg/mL	1 to 8 µg/mL (≈ 2.51 to 20.1 µM)	1 to 8 µg/mL (≈ 2.51 to 20.1 µM)	–	–	–
CS(=O)(=O)Cc1cc(=O)c(O)c(CNc2ccc(C#Cc3ccccc3)cc2)o1 [Compound 2, 2-((4-(2-phenylethynyl)phenylamino)methyl)-3-hydroxy-6-((methylsulfonyl)methyl)-4H-pyran-4-one]	–	8 to 32 µg/mL (≈ 19.5 to 78.2 µM)	> 32 µg/mL	> 32 µg/mL	> 32 µg/mL	> 32 µg/mL	> 32 µg/mL	> 32 µg/mL	–	–	–
